The values that follow come from US5541193A, “Heterocycle-containing macrocyclic immunomodulators” (Abbott Laboratories, priority 1995, dated 1996).

In the assay the test system is human mixed lymphocyte reaction (MLR). Description: human mixed lymphocyte reaction (MLR) assay, immunosuppressant activity. It is filed as cell-based. The following applies: Table 1. As for the experimental part:
[…] Assay of Biological Activity
The immunosuppressant activity of the compounds of the present invention was determined using the human mixed lymphocyte reaction (MLR) assay described by Kino, T. et al. in Transplantation Proceedings, XIX(5):36-39,Suppl. 6 (1987).
The IC50 is the concentration that gives 50% inhibition. A higher IC50 goes with a need for much substance. As for `CC[C@@H]1/C=C(\C)C[C@H](C)C[C@H](OC)[C@H]2O[C@@](O)(C(=O)C(=O)N3CCCC[C@H]3C(=O)O[C@H](/C(C)=C/[C@@H]3CC[C@H](n4ccnn4)[C@H](OC)C3)[C@H](C)[C@@H](O)CC1=O)[C@H](C)C[C@@H]2OC` [Example 5], half-maximal inhibition (IC50) required 2.48 nM. Then `CC[C@@H]1/C=C(\C)C[C@H](C)C[C@H](OC)[C@H]2O[C@@](O)(C(=O)C(=O)N3CCCC[C@H]3C(=O)O[C@H](/C(C)=C/[C@@H]3CCC(OC)C(n4ccnn4)C3)[C@H](C)[C@@H](O)CC1=O)[C@H](C)C[C@@H]2OC` (some centres unmarked) [Example 6], with 0.44 nM. To `CC[C@@H]1/C=C(\C)C[C@H](C)C[C@H](OC)[C@H]2O[C@@](O)(C(=O)C(=O)N3CCCC[C@H]3C(=O)O[C@H](/C(C)=C/[C@@H]3CC[C@H](n4nnc5ccccc54)[C@H](OC)C3)[C@H](C)[C@@H](O)CC1=O)[C@H](C)C[C@@H]2OC` [Example 7] belongs 0.21 nM; to `CC[C@@H]1/C=C(\C)C[C@H](C)C[C@H](OC)[C@H]2O[C@@](O)(C(=O)C(=O)N3CCCC[C@H]3C(=O)O[C@H](/C(C)=C/[C@@H]3CCC(OC)C(n4nnc5ccccc54)C3)[C@H](C)[C@@H](O)CC1=O)[C@H](C)C[C@@H]2OC` (some centres unmarked) [Example 8], 1.76 nM; to `CC[C@@H]1/C=C(\C)C[C@H](C)C[C@H](OC)[C@H]2O[C@@](O)(C(=O)C(=O)N3CCCC[C@H]3C(=O)O[C@H](/C(C)=C/[C@@H]3CC[C@H](n4nnc5cc([N+](=O)[O-])ccc54)[C@H](OC)C3)[C@H](C)[C@@H](O)CC1=O)[C@H](C)C[C@@H]2OC` [Example 9], 0.23 nM. Then `CC[C@@H]1/C=C(\C)C[C@H](C)C[C@H](OC)[C@H]2O[C@@](O)(C(=O)C(=O)N3CCCC[C@H]3C(=O)O[C@H](/C(C)=C/[C@@H]3CC[C@H](n4nnc5ccc([N+](=O)[O-])cc54)[C@H](OC)C3)[C@H](C)[C@@H](O)CC1=O)[C@H](C)C[C@@H]2OC` [Example 10], with 0.22 nM. The compound `CC[C@@H]1/C=C(\C)C[C@H](C)C[C@H](OC)[C@H]2O[C@@](O)(C(=O)C(=O)N3CCCC[C@H]3C(=O)O[C@H](/C(C)=C/[C@@H]3CCC(OC)C(n4nnc5cc([N+](=O)[O-])ccc54)C3)[C@H](C)[C@@H](O)CC1=O)[C@H](C)C[C@@H]2OC` (some centres unmarked) [Example 11] displayed a concentration for half-maximal inhibition (IC50) of 1.56 nM. Take `CC[C@@H]1/C=C(\C)C[C@H](C)C[C@H](OC)[C@H]2O[C@@](O)(C(=O)C(=O)N3CCCC[C@H]3C(=O)O[C@H](/C(C)=C/[C@@H]3CCC(OC)C(n4nnc5ccc([N+](=O)[O-])cc54)C3)[C@H](C)[C@@H](O)CC1=O)[C@H](C)C[C@@H]2OC` (some centres unmarked) [Example 12]: 0.94 nM corresponded to half-maximal inhibition (IC50). As for `CC[C@@H]1/C=C(\C)C[C@H](C)C[C@H](OC)[C@H]2O[C@@](O)(C(=O)C(=O)N3CCCC[C@H]3C(=O)O[C@H](/C(C)=C/[C@@H]3CC[C@H](n4cncn4)[C@H](OC)C3)[C@H](C)[C@@H](O)CC1=O)[C@H](C)C[C@@H]2OC` [Example 13], the IC50 came to 0.62 nM. The compound `CC[C@@H]1/C=C(\C)C[C@H](C)C[C@H](OC)[C@H]2O[C@@](O)(C(=O)C(=O)N3CCCC[C@H]3C(=O)O[C@H](/C(C)=C/[C@@H]3CC[C@H](n4cnc([N+](=O)[O-])n4)[C@H](OC)C3)[C@H](C)[C@@H](O)CC1=O)[C@H](C)C[C@@H]2OC` [Example 15] returned an IC50 of 0.04 nM. On to `CC[C@@H]1/C=C(\C)C[C@H](C)C[C@H](OC)[C@H]2O[C@@](O)(C(=O)C(=O)N3CCCC[C@H]3C(=O)O[C@H](/C(C)=C/[C@@H]3CCC(OC)C(n4cnc([N+](=O)[O-])n4)C3)[C@H](C)[C@@H](O)CC1=O)[C@H](C)C[C@@H]2OC` (some centres unmarked) [Example 16], for which the concentration for half-maximal inhibition (IC50) was 1 nM.
